Experimental data from patent publication US20050204407A1, “Methods for identifying and developing compounds that interact with voltage-gated potassium channels of the kv4 family” (priority 2002, published 2005).

Legend:
[1] = system: hKv4.3 expressing C. elegans strain UG 1611; test: Drinking assay (uptake of Calcein AM) in hKv4.3 expressing exp-2 strain UG 1611; format: in vivo; details: 0.3 mM, exp-2 without compound = 100%, UG 1611 without compound 114%
Text: (§1) The hKv4.3 expressing C. elegans strain UG 1611 (Example IV) was investigated for drinking behaviour by determining the uptake over time of the fluorescent dye Calcein AM, essentially as described in Examples 2 and 3 of the International application PCT/IB00/00575 by Applicant, using 96 well plates containing 100 nematodes/well. As a comparison, the exp-2(sa26as1426)V background was used.
(§2) The influence of mM 4-aminopyridine, a known general antagonist of voltage-gated potassium channel, on drinking behaviour of the hKv4.3 expressing C. elegans strain UG 1611 (Example IV) was determined by measuring the uptake of the fluorescent dye Calcein AM with and without the presence of 0.3 mM 4aminopyridine, essentially as described in Examples 2 and 3 of the International application PCT/IB00/00575 by Applicant.

exp-2 background [2] = test: Drinking assay (uptake of Calcein AM) in exp-2 background; format: in vivo, C. elegans; details: 0.3 mM, exp-2 without compound = 100%
Text: as §1, §2

[3] = system: hKv4.3 expressing C. elegans strain UG 1598; test: Pharynx pumping rate of hKv4.3 expressing pha-1 strain UG 1598; format: in vivo
Procedure: The influence of 4-aminopyridine, a known general antagonist of voltage-gated potassium channel, on the pharynx pumping rate of the hKv4.3 expressing C. elegans strain UG 1598 (Example III) was determined as follows.
(§3) The nematodes were cultivated to L4 stage on an agar plate, and then kept overnight at 20° C. to reach the adult stage. The worms where then transferred to agar plates containing 0,5 mM 4-aminopyridine in DMSO. After 3 hours at 20° C., the number of pharynx “pumps” (contractions) per 30 seconds were determined visually using a stopwatch. As a comparison, the influence of 4-aminopyridine on an N2 background was also determined, in essentially the same manner.

exp-2 background [4] = test: Pharynx pumping rate of original exp-2 background (comparison); format: in vivo, C. elegans; details: 2 mM, 3 hours at 20° C., FIG. 5
Procedure: The nematodes were cultivated to L4 stage on an agar plate, and then kept overnight at 20° C. to reach the adult stage. The worms where then transferred to agar plates containing 2 mM 4-aminopyridine in DMSO. After 3 hours at 20° C., the number of pharynx “pumps” (contractions) per 30 seconds were determined visually using a stopwatch. As a comparison, the influence of 4-aminopyridine on the original exp-2 background was also determined, in essentially the same manner.

N2 background = test: Pharynx pumping rate of N2 background (comparison); format: in vivo, C. elegans; details: 0,5 mM, 3 hours at 20° C., FIG. 4
Procedure: as §3

[5] = system: hKv4.3-expressing pha-1 strain UG 1598; test: Electropharyngeogram (EPG) of hKv4.3-expressing pha-1 strain UG 1598; format: in vivo, C. elegans; details: 215 mM
Procedure: An electropharyngeogram of the human Kv4.3 expressing strain UG 1547 was recorded using an Axopatch-1D amplifier (Axon instruments), essentially as described by Raizen and Avery, supra, and is shown in FIG. 1. For comparison, reference is made to the EPG's for wild-type and exp-2 shown by Davis, Dent and Avery, Worm Breeders Gazette 14(4); 72 (1996), as well as the EPG's for wild-type shown in Raizen and Avery.
The influence of 4-aminopyridine on the EPG of a hKv4.3-expressing strain was studied using the hKv4.3-expressing pha-1 strain UG 1598 of Example III. As mentioned in Example VI, exposing this strain UG 1598 to 4-aminopyridine leads to a reduction of pharynx pumping.
The EPG's for UG 1598 (using 4 pharynxes) were recorded essentially as described in Example XII. The EPG's of UG 1598 without 4-aminopyridine were recorded during a period of 5 minutes, upon which the pharynxes were exposed to 215 mM 4-aminopyridine, and the EPG's were further recorded during a 5 minute period. The EPG's with and without the presence of 4-aminopyridine were then compared with each other and to the EPG for wild-type (see the references mentioned in Example XII).
The number of “Kv4.3-like” AP's and the number of “normal” AP's during the 5 minute recording period were determined/counted from the recorded EPG's.
After exposure to the 4-aminopyridine, the number of “Kv4.3-like” AP's and the number of “normal” AP's during the 5 minute recording period were again determined/counted from the EPG recording.

unc-119; hKv4.3 = test: Pharynx pumping rate of unc-119; hKv4.3 nematode; format: in vivo, C. elegans; details: 500 mM, 3 hrs
[6] = system: hKv4.3 expressing C. elegans strain UG 1611; test: Pharynx pumping rate of hKv4.3 expressing exp-2 strain UG 1611; format: in vivo; parameters: Change observed (pharynx pumping rate): dose or concentration left out as unconfirmed
Procedure: The influence of 4-aminopyridine, a known general antagonist of voltage-gated potassium channel, on the pharynx pumping rate of the hKv4.3 expressing C. elegans strain UG 1611 (Example IV) was determined as follows.
The nematodes were cultivated to L4 stage on an agar plate, and then kept overnight at 20° C. to reach the adult stage. […] After 3 hours at 20° C., the number of pharynx “pumps” (contractions) per 30 seconds were determined visually using a stopwatch. As a comparison, the influence of 4-aminopyridine on the original exp-2 background was also determined, in essentially the same manner.

[7] = UG 1598, compared to UG1598 without compound

**Q.** Which results are given for Nc1ccncc1 [4-aminopyridine]?
**A.** Uptake of fluorescent marker Calcein AM (drinking) [1]: 109%; Uptake of fluorescent marker Calcein AM (drinking) (exp-2 background [2]): 103%; Change observed (pharynx pumping rate) ([3]; pha-1, hKv4.3, 0,5 mM, 3 hrs): increase in; Influence on pharynx pumping rate (pumps per 30 seconds) ([3]; strain UG 1598, 0,5 mM in agar plates, 3 hours at 20° C., FIG. 4): increases; Pharynx pumping (as restated in Example XIII) ([3]; strain UG 1598, refers to Example VI): reduction; Influence on pharynx pumping rate (pumps per 30 seconds) (exp-2 background [4]): very little influence; Influence on pharynx pumping rate (pumps per 30 seconds) (N2 background): very little influence; Number of "normal" APs during the 5 minute recording period ([5]; UG 1598, 4 pharynxes, before adding 14+/−12, P<0.0161): 64+/−9; Relative number of "Kv4.3 like" AP's in EPG [5, 7]: significant decrease; Relative number of "normal" AP's in EPG [5, 7]: corresponding increase; Change observed (pharynx pumping rate) (unc-119; hKv4.3): increase in; Change observed (pharynx pumping rate) ([6]; exp-2, hKv4.3, 3 hrs): (small) decrease; Influence on pharynx pumping rate (pumps per 30 seconds) ([6]; strain UG 1611, 2 mM in agar plates, 3 hours at 20° C., FIG. 5): decreases
